Experimental data reported in patent publication US20030135033A1, “Compounds and methods for the identification and/ or validation of a target” (priority 2002, published 2003).

Key:
Format in all cases: cell-based, human
Hela cells = assay: Cell growth on matrigel; details: 48 h transfection, then 48 to 72 h on matrigel, versus control GeneBloc
Text: More particularly, a schematic pathway with PTEN inhibiting PI-3K activity is shown which would normally phosphorylate Akt thus leading to proliferation, survival and migration of HeLa cells as a model system for PTEN +/+ cells. FIG. 9 B presents the Western immunoblot analysis of an experiment studying the influence of PTEN specific antisense oligonucleotide or a control antisense nucleotide designated as mismatch GeneBloc™. PTEN is only present in the control sample, but is absent when PTEN-specific antisense oligonucleotides are used. The successful knockdown of PTEN causes phosphorylation of Akt, indicative of induction of the signalling pathway. […] Growth on matrigel is used as a surrogate in vitro assay for metastatic or invasive cell growth. […]
Loss of PTEN function has been correlated with an increased metastatic growth potential in late stage human cancers (Cantley, L. C. and Neel, B. G. (1999). New insights into tumor suppression: PTEN suppresses tumor formation by restraining the phosphoinositide 3-kinase/AKT pathway. Proc Natl Acad Sci U S A 96, 4240-4245; Ali, I. U. (2000). Gatekeeper for endometrium: the PTEN tumor suppressor gene. J Natl Cancer Inst 92, 861-863). […] HeLa cells expressing an inducible version of a constitutively active PI 3-kinase, p110* […] were analyzed in parallel. […]

PTEN mRNA [1] = assay: Immunoblot of PTEN and phosphorylated Akt after GeneBloc transfection of HeLa cells; details: 30 nM, 48 h
Description: More particularly, HeLa cells (380.000 cells/plate) and PC-3 cells (450.000 cells/plate) were transfected in parallel on 10 cm plates. Each cell line was treated for 48 h in duplicate samples with 30 nM of PTEN GeneBloc 53 or GBC. The cell extracts were analyzed by immunoblotting for the relative amounts of p110, PTEN and phosphorylated Akt (P*-Akt) as indicated on the right. The band which migrates just above the PTEN signal was caused by unspecific reaction of the secondary antibody.
More particularly, a schematic pathway with PTEN inhibiting PI-3K activity is shown which would normally phosphorylate Akt thus leading to proliferation, survival and migration of HeLa cells as a model system for PTEN +/+ cells. FIG. 9 B presents the Western immunoblot analysis of an experiment studying the influence of PTEN specific antisense oligonucleotide or a control antisense nucleotide designated as mismatch GeneBloc™. PTEN is only present in the control sample, but is absent when PTEN-specific antisense oligonucleotides are used. The successful knockdown of PTEN causes phosphorylation of Akt, indicative of induction of the signalling pathway. […] Growth on matrigel is used as a surrogate in vitro assay for metastatic or invasive cell growth. The cells treated with PTEN third generation antisense oligonucleotide (“PTEN GeneBloc™”) shown in FIG. 9C have a significant growth advantage over the control-treated cells.
Transfections were carried out in 96 well or 10-cm plates (at 30% to 50% confluency) by using various cationic lipids such as Oligofectamine, Lipofectamine (Life Technologies), NC388 (Ribozyme Pharmaceuticals, Inc., Boulder, CO), or FuGene 6 (Roche) according to the manufacturer's instructions. […]
Cells were washed twice with cold phosphate-buffered saline and lysed at 4° C. in lysis buffer containing 20 mM Tris (pH 7.5), 137 mM NaCl, 15% (vol/vol) glycerol, 1% (vol/vol) Nonidet P-40 (NP-40), 2 mM phenylmethylsulfonyl fluoride, […], 20 mM leupeptin, 2 mM benzamidine, 1 mM sodium vanadate, 25 mM […]-glycerol phosphate, 50 mM NaF and 10 mM NaPPi. Lysates were cleared by centrifugation at 14,000× g for 5 minutes and aliquots of the lysates were analyzed for protein expression by Western-blotting: Samples were separated by SDS-PAGE and transferred to nitrocellulose-filters (Schleicher & Schuell). […] Bound antibody was detected using anti-mouse- or anti-rabbit-conjugated horse radish peroxidase (Transduction Laboratories, BD) in TBST, washed, and developed using the SuperSignal West Dura (Pierce) or ECL (Amersham) chemoluminescence substrates.
The effect of GeneBloc induced transient knock down of PTEN expression was to be compared to the loss of PTEN function in human tumor cells. […] After 2 days the cell extracts were analyzed by Western-blotting. […]

PTEN mRNA [2] = assay: PTEN knock down by RNAi versus antisense oligonucleotide (Western blot, dose response)
Description: The cells were infected using any of these two constructs according to the methods described herein above.
The result of this experiment is depicted in FIG. 18. […] As a positive control an antisense oligonucleotide specific for PTEN referred to as GeneBloc 53 (disclosed above) was also applied to the respective expression system at different concentrations (60 nM, 15 nM, 3.75 nM and 0.93 nM).
To further illustrate the impact of RNAi which is specific for PTEN, on the ratio of PTEN to p110 a dose response was generated which is shown in FIG. 19. From FIG. 19 it may be taken that even at the lowest concentration, i. e. 0.03 nM, the PTEN specific RNAi still reduces the ratio of PTEN to p 110 to about one third of the respective control. […] This is in clear contrast to RNAi which is not specific for PTEN.

Substance: ucuccuuTTGTTTCTGcuaacga (UCUCCUUTTGTTTCTGCUAACGA; chemistry not fully specified) [PTEN 53, third generation antisense oligonucleotide (GeneBloc) against PTEN]
- growth on matrigel (Hela cells): increased potential to form network structures on matrigel and grew better
- PTEN (immunoblot) (PTEN mRNA [1]): degradation of PTEN mRNA
- phosphorylated Akt (P*-Akt) (immunoblot) (PTEN mRNA [1]): generation of phosphorylated Akt
- PTEN (immunoblot) (PTEN mRNA [1]; listed as PTEN GeneBloc 53): strong reduction in PTEN protein
- phosphorylated Akt (P*-Akt) (immunoblot) (PTEN mRNA [1]; listed as PTEN GeneBloc 53): substantial increase in Akt phosphorylation
- concentration required compared to RNAi (PTEN mRNA [2]; PTEN knockdown, Western blot): requires higher concentrations compared to RNAi
- PTEN expression (Western blot) (PTEN mRNA [2]; antisense oligonucleotide at 60 nM, 15 nM, 3.75 nM and 0.93 nM): allows for a specific knockdown of PTEN
